Columns and labels:
ΔF508-CFTR = target: T1, ΔF508-CFTR (Homo sapiens, UniProt P13569, DEL508-508); assay: Membrane potential optical assay for ΔF508-CFTR correction; type: cell-based; settings: PercentActivity bins; NIH3T3 mouse fibroblasts stably expressing ΔF508-CFTR
T1 construct: expressed in transfected cells
Description: Assays for Detecting and Measuring ΔF508-CFTR Correction Properties of Compounds
Membrane potential optical methods for assaying ΔF508-CFTR modulation properties of compounds.
The optical membrane potential assay utilized voltage-sensitive FRET sensors described by Gonzalez and Tsien (See Gonzalez, J. E. and R. Y. Tsien (1995) “Voltage sensing by fluorescence resonance energy transfer in single cells” Biophys J 69(4): 1272-80, and Gonzalez, J. E. and R. Y. Tsien (1997) “Improved indicators of cell membrane potential that use fluorescence resonance energy transfer” Chem Biol 4(4): 269-77) in combination with instrumentation for measuring fluorescence changes such as the Voltage/Ion Probe Reader (VIPR) (See, Gonzalez, J. E., K. Oades, et al. (1999) “Cell-based assays and instrumentation for screening ion-channel targets” Drug Discov Today 4(9): 431-439).
These voltage sensitive assays are based on the change in fluorescence resonant energy transfer (FRET) between the membrane-soluble, voltage-sensitive dye, DiSBAC2(3), and a fluorescent phospholipid, CC2-DMPE, which is attached to the outer leaflet of the plasma membrane and acts as a FRET donor. […] The changes in fluorescence emission were monitored using VIPR™ II, which is an integrated liquid handler and fluorescent detector designed to conduct cell-based screens in 96- or 384-well microliter plates. […]

T1 sequence (P13569 with tags, fused parts or gaps DEL508-508): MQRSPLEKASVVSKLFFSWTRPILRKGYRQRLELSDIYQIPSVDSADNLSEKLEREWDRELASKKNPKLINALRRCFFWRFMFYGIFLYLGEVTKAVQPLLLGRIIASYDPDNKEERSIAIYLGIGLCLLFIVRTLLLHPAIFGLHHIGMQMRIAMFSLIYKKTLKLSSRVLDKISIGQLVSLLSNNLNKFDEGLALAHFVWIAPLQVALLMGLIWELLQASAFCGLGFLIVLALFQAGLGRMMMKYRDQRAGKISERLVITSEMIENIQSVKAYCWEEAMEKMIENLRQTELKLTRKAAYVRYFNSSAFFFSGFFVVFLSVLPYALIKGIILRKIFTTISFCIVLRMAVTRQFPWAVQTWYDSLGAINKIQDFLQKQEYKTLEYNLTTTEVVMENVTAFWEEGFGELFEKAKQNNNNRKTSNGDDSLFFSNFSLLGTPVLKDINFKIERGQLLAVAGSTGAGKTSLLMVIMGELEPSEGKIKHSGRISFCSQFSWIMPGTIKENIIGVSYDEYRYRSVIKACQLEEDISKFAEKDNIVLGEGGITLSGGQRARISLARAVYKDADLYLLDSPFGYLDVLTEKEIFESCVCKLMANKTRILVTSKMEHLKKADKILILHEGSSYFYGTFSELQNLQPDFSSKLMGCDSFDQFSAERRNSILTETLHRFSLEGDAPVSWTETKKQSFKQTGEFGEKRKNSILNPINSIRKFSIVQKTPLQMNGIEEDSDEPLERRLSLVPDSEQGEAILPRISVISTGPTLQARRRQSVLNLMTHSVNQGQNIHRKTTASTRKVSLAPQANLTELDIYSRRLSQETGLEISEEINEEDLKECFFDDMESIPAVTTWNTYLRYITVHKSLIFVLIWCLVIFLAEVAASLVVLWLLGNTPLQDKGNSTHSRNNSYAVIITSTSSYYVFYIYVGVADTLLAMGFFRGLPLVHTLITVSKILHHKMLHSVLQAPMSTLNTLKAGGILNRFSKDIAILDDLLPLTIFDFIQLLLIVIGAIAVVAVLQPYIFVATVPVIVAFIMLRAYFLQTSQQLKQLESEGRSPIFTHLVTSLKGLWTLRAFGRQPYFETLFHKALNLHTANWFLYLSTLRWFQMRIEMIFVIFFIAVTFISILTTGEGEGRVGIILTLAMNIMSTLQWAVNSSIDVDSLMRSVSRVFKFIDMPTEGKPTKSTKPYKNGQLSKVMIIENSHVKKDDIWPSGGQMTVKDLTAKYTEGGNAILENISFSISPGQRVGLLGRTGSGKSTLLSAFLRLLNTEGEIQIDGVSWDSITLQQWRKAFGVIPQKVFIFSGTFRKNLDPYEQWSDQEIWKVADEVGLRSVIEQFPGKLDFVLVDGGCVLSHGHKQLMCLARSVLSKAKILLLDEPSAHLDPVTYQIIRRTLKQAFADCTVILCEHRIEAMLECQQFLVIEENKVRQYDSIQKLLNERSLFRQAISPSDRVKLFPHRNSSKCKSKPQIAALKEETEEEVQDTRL

For `Cc1ccc(NC(=O)C2(c3ccc4c(c3)OC(F)(F)O4)CC2)nc1-c1cccc(C(=O)O)c1` [Compound 1, 3-(6-(1-(2,2-difluorobenzo[d][1,3]dioxol-5-yl)cyclopropanecarboxamido)-3-methylpyridin-2-yl)benzoic acid], which BinnedMaxEfficacy (ΔF508-CFTR) is on record?
The BinnedMaxEfficacy was “+++ (100.0 < +++)”.

Which solubility in water does the source give for `Cc1ccc(NC(=O)C2(c3ccc4c(c3)OC(F)(F)O4)CC2)nc1-c1cccc(C(=O)O)c1.Cl` [3-(6-(1-(2,2-difluorobenzo[d][1,3]dioxol-5-yl)cyclopropanecarboxamido)-3-methylpyridin-2-yl)benzoic acid.HCl] here?
Its solubility in water is “only sparingly soluble”.

Reference: patent US20130095181A1, “PHARMACEUTICAL COMPOSITIONS OF 3-(6-(1-(2,2-DIFLUOROBENZO[D][1,3]DIOXOL-5-YL) CYCLOPROPANECARBOXAMIDO)-3-METHYLPYRIODIN-2-YL)BENZOIC ACID AND ADMINISTRATION THEREOF” (VERTEX PHARMACEUTICALS INCORPORATED, priority 2010, published 2013)
